# Results taken from paper PMC7594077, “An Alcohol Dehydrogenase 3 (ADH3) from Entamoeba histolytica Is Involved in the Detoxification of Toxic Aldehydes” (Microorganisms, 2020).
# Assays:
# [1] = target: T1, recEhADH3B^b (Entamoeba histolytica, UniProt C4M6R1); experiment: NADPH oxidation at […] nm, Michaelis-Menten; format: biochemical; conditions: 0.7 mM NADPH, pH 7.4, EDTA-treated and dialysed enzyme incubated with 1 mM Ni2+; reduction direction
# T1 construct: gene EHI_088020; E. coli BL21(DE3); dimer; EDTA-stripped and reloaded with Ni2+
# T1 sequence (C4M6R1 1-382): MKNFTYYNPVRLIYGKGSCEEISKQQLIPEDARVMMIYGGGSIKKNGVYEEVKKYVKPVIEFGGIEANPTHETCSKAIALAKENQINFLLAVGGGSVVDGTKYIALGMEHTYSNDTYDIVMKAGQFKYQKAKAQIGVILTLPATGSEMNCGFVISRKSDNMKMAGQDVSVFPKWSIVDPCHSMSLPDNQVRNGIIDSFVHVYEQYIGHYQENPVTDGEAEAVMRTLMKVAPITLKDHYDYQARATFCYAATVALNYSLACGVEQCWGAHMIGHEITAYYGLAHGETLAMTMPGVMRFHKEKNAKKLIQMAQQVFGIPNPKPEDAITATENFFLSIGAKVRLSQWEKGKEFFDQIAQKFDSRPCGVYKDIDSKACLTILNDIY
# [2] = target: recombinant EhADH3B^b (alcohol dehydrogenase 3B of Entamoeba histolytica) (Entamoeba histolytica); experiment: SEC; HiLoad 16/60 Superdex prep grade column; 50 mM Tris, 150 mM NaCl, 10 mM EDTA, 1 mM DTT, 10% glycerol, pH 8.0; elution peak at 82 mL compared with standard proteins
stoichiometry N [2],Molecule,Km [1]
,CC=O [acetaldehyde],30.84 [95% CI 16.21–60.54] mM
,C=O [formaldehyde],63.7 [95% CI 25.3 to 267.4] mM
2,recombinant EhADH3B^b (alcohol dehydrogenase 3B of Entamoeba histolytica) (enzyme),
